Results as given in ChEMBL document CHEMBL3112482, “Nonclassical antifolates, part 5. Benzodiazepine analogs as a new class of DHFR inhibitors: synthesis, antitumor testing and molecular modeling study” (Eur J Med Chem, 2014).

Molecular target: T1, Dihydrofolate reductase (Bos taurus, UniProt P00376)
T1 sequence (P00376 whole entry): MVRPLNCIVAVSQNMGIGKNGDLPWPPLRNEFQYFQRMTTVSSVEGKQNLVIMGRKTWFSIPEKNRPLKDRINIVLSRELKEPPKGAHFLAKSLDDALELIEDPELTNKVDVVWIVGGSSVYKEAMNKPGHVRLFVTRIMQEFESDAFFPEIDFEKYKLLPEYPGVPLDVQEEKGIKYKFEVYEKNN
Assay: Inhibition of bovine liver DHFR measured for every 1 min of 10 mins

Structure (SMILES) | IC50 [µM]
Cc1cc2c(cc1C)NC(c1ccc(Cl)cc1)=C1CCC/C(=C\c3ccc(Cl)cc3)C1=N2 | 70
Cc1cc2c(cc1C)NC(c1ccc(Br)cc1)=C1CCC/C(=C\c3ccc(Br)cc3)C1=N2 | 21
Clc1ccc(/C=C2\CCCC3=C(c4ccc(Cl)cc4)Nc4cc(Cl)c(Cl)cc4N=C32)cc1 | 12
